Structures can show the parent of a compound that is named as a salt.
Tests used:
[1] = Toxicokinetic evaluation in pregnant rats (Example 3); format: in vivo, rat
From the text: Animals received in-life and postmorten evaluations.

[2] = Toxicokinetic analysis in rat plasma (Example 5); format: in vivo
Protocol: TK animals were dosed for 70 and 14 days for the males and females, respectively. Dosing of TK males and females was initiated simultaneously, continuing to euthanasia. Refrigerated daily aliquots of dosing formulations were brought to room temperature while continuously stirring for at least 30 minutes prior to dosing.

[3] = Toxicokinetic evaluation in pregnant rabbits (Example 4); format: in vivo, rabbit
Protocol: The dose levels for the treated groups were 50, 125, 225, mg base/kg/day at a dose volume of 10 mL/kg. The control group received the vehicle in the same manner as the treated groups. […] Individual doses were based on the most recent body weights.
Observations of the animals included clinical signs, body weights, food consumption, and anatomical pathology including a uterine examination. […] All fetuses were given an external, visceral, and skeletal examination.

[4] = Toxicokinetics in pregnant New Zealand White rabbits (Example 2); format: in vivo, rabbit; conditions: GD 18
Protocol: The study was conducted in two phases: Phase A was a dose range finding tolerance study with non-pregnant rabbits, and Phase B was the pilot developmental toxicity study.
All fetuses were given the appropriate external examination.

[5] = Toxicokinetics in pregnant Sprague-Dawley rats (Example 1); format: in vivo, rat; conditions: belumosudil 25 mg base/kg/day oral, GD 17
[6] = system: patients with cGVHD; conditions: cited from earlier work
[7] = Solubility; format: physicochemical
Protocol: The tablet film consists of polyvinyl alcohol, polyethylene glycol, talc, titanium dioxide and yellow iron oxide. Each 200 mg tablet is a pale-yellow film-coated oblong tablet debossed with “KDM” on one side and “200” on the other side. Tablets are stored at room temperature, 20° C. to 25° C. (68° F. to 77° F.); excursions permitted from 15° C. and 30° C. (59° F. to 86° F.).

[8] = GD 6, belumosudil 15 mg base/kg oral
[9] = GD 6, belumosudil 50 mg base/kg oral
[10] = GD 6, belumosudil 150 mg base/kg oral
[11] = GD 17, belumosudil 15 mg base/kg oral
[12] = GD 17, belumosudil 50 mg base/kg oral
[13] = GD 17, belumosudil 150 mg base/kg oral
[14] = Day 1, belumosudil 50 mg base/kg, F
[15] = Day 1, belumosudil 50 mg base/kg, M
[16] = Day 1, belumosudil 150 mg base/kg, F
[17] = Day 1, belumosudil 150 mg base/kg, M
[18] = Day 1, belumosudil 275 mg base/kg, F
[19] = Day 1, belumosudil 275 mg base/kg, M
[20] = Day 14, belumosudil 50 mg base/kg, F
[21] = Day 14, belumosudil 150 mg base/kg, F
[22] = Day 14, belumosudil 275 mg base/kg, F
[23] = Day 70, belumosudil 50 mg base/kg, M
[24] = Day 70, belumosudil 150 mg base/kg, M
[25] = Day 70, belumosudil 275 mg base/kg, M
[26] = GD 6, belumosudil 125 mg base/kg oral
[27] = GD 6, belumosudil 225 mg base/kg oral
[28] = GD 18, belumosudil 50 mg base/kg oral
[29] = GD 18, belumosudil 125 mg base/kg oral
[30] = GD 18, belumosudil 225 mg base/kg oral
[31] = belumosudil 50 mg base/kg/day oral
[32] = belumosudil 250 mg base/kg/day oral

SMILES: O=C(O)COc1cccc(-c2nc(Nc3ccc4[nH]ncc4c3)c3ccccc3n2)c1 [KD025m2]
- Mean AUC0-24 in plasma of pregnant rats [1, 8]: 515 ng·h/mL
- Mean Cmax in plasma of pregnant rats [1, 8]: 76.2 ng/mL
- Mean AUC0-24 in plasma of pregnant rats [1, 9]: 3050 ng·h/mL
- Mean Cmax in plasma of pregnant rats [1, 9]: 191 ng/mL
- Mean AUC0-24 in plasma of pregnant rats [1, 10]: 10500 ng·h/mL
- Mean Cmax in plasma of pregnant rats [1, 10]: 519 ng/mL
- Mean AUC0-24 in plasma of pregnant rats [1, 11]: 572 ng·h/mL
- Mean Cmax in plasma of pregnant rats [1, 11]: 55.6 ng/mL
- Mean AUC0-24 in plasma of pregnant rats [1, 12]: 3580 ng·h/mL
- Mean Cmax in plasma of pregnant rats [1, 12]: 350 ng/mL
- Mean AUC0-24 in plasma of pregnant rats [1, 13]: 11100 ng·h/mL
- Mean Cmax in plasma of pregnant rats [1, 13]: 972 ng/mL
- accumulation after multiple dosing of belumosudil ([1]; pregnant rats): No apparent accumulation
- AUC0-24 in rat plasma [2, 14]: 2110 ng·h/mL
- Cmax in rat plasma [2, 14]: 135 ng/mL
- AUC0-24 in rat plasma [2, 15]: 5440 ng·h/mL
- Cmax in rat plasma [2, 15]: 501 ng/mL
- AUC0-24 in rat plasma [2, 16]: 6860 ng·h/mL
- Cmax in rat plasma [2, 16]: 398 ng/mL
- AUC0-24 in rat plasma [2, 17]: 13600 ng·h/mL
- Cmax in rat plasma [2, 17]: 686 ng/mL
- AUC0-24 in rat plasma [2, 18]: 11500 ng·h/mL
- Cmax in rat plasma [2, 18]: 925 ng/mL
- AUC0-24 in rat plasma [2, 19]: 21500 ng·h/mL
- Cmax in rat plasma [2, 19]: 1680 ng/mL
- AR (Accumulation Ratio) AUC0-24 [2, 20]: 0.657
- AUC0-24 in rat plasma [2, 20]: 1390 ng·h/mL
- Cmax in rat plasma [2, 20]: 125 ng/mL
- AR (Accumulation Ratio) AUC0-24 [2, 21]: 1.04
- AUC0-24 in rat plasma [2, 21]: 7110 ng·h/mL
- Cmax in rat plasma [2, 21]: 523 ng/mL
- AR (Accumulation Ratio) AUC0-24 [2, 22]: 1.80
- AUC0-24 in rat plasma [2, 22]: 20700 ng·h/mL
- Cmax in rat plasma [2, 22]: 1480 ng/mL
- AR (Accumulation Ratio) AUC0-24 [2, 23]: 0.750
- AUC0-24 in rat plasma [2, 23]: 4080 ng·h/mL
- Cmax in rat plasma [2, 23]: 410 ng/mL
- AR (Accumulation Ratio) AUC0-24 [2, 24]: 0.701
- AUC0-24 in rat plasma [2, 24]: 9520 ng·h/mL
- Cmax in rat plasma [2, 24]: 1070 ng/mL
- AR (Accumulation Ratio) AUC0-24 [2, 25]: 1.35
- AUC0-24 in rat plasma [2, 25]: 28900 ng·h/mL
- Cmax in rat plasma [2, 25]: 1900 ng/mL
- accumulation after multiple doses of belumosudil ([2]; rats): less than 2 fold
- Mean AUC0-24 in plasma of pregnant rabbits [3, 9]: 4180 ng·h/mL
- Mean Cmax in plasma of pregnant rabbits [3, 9]: 1170 ng/mL
- Mean AUC0-24 in plasma of pregnant rabbits [3, 26]: 13600 ng·h/mL
- Mean Cmax in plasma of pregnant rabbits [3, 26]: 2180 ng/mL
- Mean AUC0-24 in plasma of pregnant rabbits [3, 27]: 42400 ng·h/mL
- Mean Cmax in plasma of pregnant rabbits [3, 27]: 3190 ng/mL
- Mean AUC0-24 in plasma of pregnant rabbits [3, 28]: 2470 ng·h/mL
- Mean Cmax in plasma of pregnant rabbits [3, 28]: 1120 ng/mL
- Mean AUC0-24 in plasma of pregnant rabbits [3, 29]: 16700 ng·h/mL
- Mean Cmax in plasma of pregnant rabbits [3, 29]: 3610 ng/mL
- Mean AUC0-24 in plasma of pregnant rabbits [3, 30]: 41500 ng·h/mL
- Mean Cmax in plasma of pregnant rabbits [3, 30]: 4620 ng/mL
- accumulation after multiple dosing of belumosudil ([3]; pregnant rabbits): no apparent accumulation
- maternal AUC0-24 [4, 31]: 2990 ng·h/mL
- maternal Cmax [4, 31]: 1090 ng/mL
- maternal AUC0-24 [4, 32]: 19700 ng·h/mL
- maternal Cmax [4, 32]: 3080 ng/mL
- maternal AUC0-24 [5]: 1480 ng·h/mL
- maternal Cmax [5]: 127 ng/mL

SMILES: C=CC(=O)N1CCC[C@@H](n2nc(-c3ccc(Oc4ccccc4)cc3)c3c(N)ncnc32)C1 [ibrutinib]
- discontinuation rate because of TEAEs [6]: 43%

SMILES: CC(C)NC(=O)COc1cccc(-c2nc(Nc3ccc4[nH]ncc4c3)c3ccccc3n2)c1 [Belumosudil mesylate, 2-{3-[4-(1H-indazol-5-ylamino)-2-quinazolinyl]phenoxy}-N-(propan-2-yl) acetamide methanesulfonate (1:1)]
- solubility in DMSO [7]: soluble in DMSO
- solubility in methanol and DMF [7]: slightly soluble in methanol and DMF
- solubility in water [7]: practically insoluble in water

Source: patent publication US20240277713A1 (Kadmon Corporation, LLC, priority 2022, published 2024)
